≈ marks a conversion by molar mass, not a printed value. Where two headings read alike, the source gives them in different places.
Columns and labels:
Bif. angulatum = test: MIC against human gut microbiota; assay type: cell-based, Bifidobacterium angulatum; conditions: Bifidobacterium angulatum; Bif. angulatum HM- 1189, BHIS broth, anaerobic; read-out: minimum inhibitory concentration (MIC)
L. casei = test: MIC against human gut microbiota; assay type: cell-based; conditions: Lacticaseibacillus casei, ATCC334; L. casei ATCC 334, MRS broth, 5% CO2; read-out: minimum inhibitory concentration (MIC)
B. fragilis = test: MIC against human gut microbiota; assay type: cell-based, Bacteroides fragilis; conditions: Bacteroides fragilis, anaerobic, read-out: minimum inhibitory concentration (MIC)
L. rhamanosus = test: MIC against human gut microbiota; assay type: cell-based, Lactobacillus rhamnoosus; conditions: Lactobacillus, ATCC53103; L. rhamanosus ATCC-53103, MRS broth, 5% CO2; read-out: minimum inhibitory concentration (MIC)
Bif. breve = test: MIC against human gut microbiota; assay type: cell-based, Bifidobacterium breve; conditions: Bifidobacterium breve, ATCC15700; Bif. breve ATCC 15700, BHIS broth, anaerobic; read-out: minimum inhibitory concentration (MIC)
B. dorei = test: MIC against human gut microbiota; assay type: cell-based, Bacteroides dorei; conditions: Phocaeicola dorei; B. dorei HM- 719, BHIS broth, anaerobic; read-out: minimum inhibitory concentration (MIC)
[1] = Cytotoxicity assessment against Vero cells (MTS); conditions: monkey, Vero cells (monkey kidney epithelial cells)
[2] = test system: monkey kidney epithelial (Vero) cells; test: Cytotoxicity assessment against Vero cells (MTS); conditions: Vero IC50 relative to MIC90 of C. difficile panel
Bif. longum = test: MIC against human gut microbiota; assay type: cell-based, Bifidobacterium longum; conditions: Bifidobacterium longum, anaerobic, read-out: minimum inhibitory concentration (MIC)
[3] = test system: C. difficile ATCC BAA-1870; test: MIC of active hits by broth microdilution; conditions: C. difficile ATCC BAA-1870, 48 h anaerobic; for MIC: Clostridioides difficile, ATCCBAA1870, 48 h
Bif. adolescentis = test: MIC against human gut microbiota; assay type: cell-based, Bifidobacterium adolescentis; conditions: Bifidobacterium adolescentis; Bif. adolescentis HM- 633, BHIS broth, anaerobic; read-out: minimum inhibitory concentration (MIC)
[4] = test system: C. difficile clinical isolates; test: MIC against a panel of 20 C. difficile clinical isolates (broth microdilution); assay type: cell-based, Clostridioides difficile; conditions: Clostridioides difficile; for MIC50: concentration that inhibited 50% of the 20 C. difficile clinical isolates
L. brevis = test: MIC against human gut microbiota; assay type: cell-based, Lactobacillus brevis; conditions: Levilactobacillus brevis, ATCC14864; L. brevis ATCC-14864, MRS broth, 5% CO2; read-out: minimum inhibitory concentration (MIC)
E. faecium = test: MIC against human gut microbiota; assay type: cell-based, Enterococcus faecium; conditions: Enterococcus faecium; E. faecium HM-202, TSB, aerobic; read-out: minimum inhibitory concentration (MIC)
E. fecalis = test: MIC against human gut microbiota; assay type: cell-based, Enterococcus faecalis; conditions: Enterococcus faecalis; E. fecalis HM-970, TSB, aerobic; read-out: minimum inhibitory concentration (MIC)
[5] = test system: Mycobacterium tuberculosis; set-up: method as in earlier work; conditions: read-out: half-maximal inhibitory concentration [IC50]; cited from earlier work
enterococcal species = test: MIC against human gut microbiota, summary in text; assay type: cell-based; conditions: summary over the Enterococcus strains of Table 4
[6] = test system: methicillin-resistant S. aureus (MRSA); set-up: method as in earlier work; conditions: cited from earlier work
Escherichia coli = test system: Escherichia coli; set-up: method as in earlier work; conditions: cited from earlier work
Bacillus subtilis = test system: Bacillus subtilis; set-up: method as in earlier work; conditions: cited from earlier work
in vitro = conditions: monkey
[7] = test system: C. difficile ATCC BAA-1870; test: Time-kill assay at 5 × MIC; conditions: C. difficile ATCC BAA-1870, ~10^6 CFU/mL, up to 24 h
[8] = B. fragilis HM- 709, BHIS broth
[9] = B. fragilis HM- 718, BHIS broth
[10] = Bif. longum HM- 845, BHIS broth
[11] = Bif. longum HM- 846, BHIS broth
[12] = Bif. longum HM- 847, BHIS broth
[13] = Bif. longum HM- 848, BHIS broth

COC(=O)N/N=C/c1c[n+]([O-])c2ccccc2[n+]1[O-] [Carbadox]
MIC (Bif. angulatum): 4 µg/mL (≈ 15.3 µM)
MIC (L. casei): 128 µg/mL (≈ 488 µM)
MIC (B. fragilis; [8]): 2 µg/mL (≈ 7.63 µM)
MIC (B. fragilis; [9]): 2 µg/mL (≈ 7.63 µM)
MIC (L. rhamanosus): > 256 µg/mL
MIC (Bif. breve): 16 µg/mL (≈ 61 µM)
MIC (B. dorei): 2 µg/mL (≈ 7.63 µM)
IC50 at 24 h [1]: > 128 µg/mL
safety index: Vero IC50 as times the MIC90 against strains of C. difficile [2]: > 64 times
MIC (Bif. longum; [10]): 4 µg/mL (≈ 15.3 µM)
MIC (Bif. longum; [11]): 8 µg/mL (≈ 30.5 µM)
MIC (Bif. longum; [12]): 16 µg/mL (≈ 61 µM)
MIC (Bif. longum; [13]): 4 µg/mL (≈ 15.3 µM)
MIC (μM) [3]: 4 µM
MIC [3]: 1.05 µg/mL
MIC (Bif. adolescentis): 4 µg/mL (≈ 15.3 µM)
MIC50 ([4]; 48 h, read-out: MIC50): 1 µg/mL (≈ 3.81 µM)
MIC ([4]; ATCC630, C. difficile ATCC 630, read-out: minimum inhibitory concentration (MIC)): 1 µg/mL (≈ 3.81 µM)
MIC ([4]; ATCC43255, C. difficile ATCC 43255, read-out: minimum inhibitory concentration (MIC)): 1 µg/mL (≈ 3.81 µM)
MIC ([4]; ATCCBAA1870, C. difficile ATCC BAA-1870 (Ribotype-027), purchased compounds, panel test, read-out: minimum inhibitory concentration (MIC)): 2 µg/mL (≈ 7.63 µM)
MIC ([4]; C. difficile CD-1 (Ribotype-027), read-out: minimum inhibitory concentration (MIC)): 2 µg/mL (≈ 7.63 µM)
MIC ([4]; C. difficile CD-6 (Ribotype-027), read-out: minimum inhibitory concentration (MIC)): 0.5 µg/mL (≈ 1.91 µM)
MIC ([4]; C. difficile CD-10(Ribotype-027), read-out: minimum inhibitory concentration (MIC)): 2 µg/mL (≈ 7.63 µM)
MIC ([4]; C. difficile CD-12, read-out: minimum inhibitory concentration (MIC)): 2 µg/mL (≈ 7.63 µM)
MIC ([4]; C. difficile CD-13, read-out: minimum inhibitory concentration (MIC)): 1 µg/mL (≈ 3.81 µM)
MIC ([4]; C. difficile CD-15, read-out: minimum inhibitory concentration (MIC)): 1 µg/mL (≈ 3.81 µM)
MIC ([4]; C. difficile CD-22, read-out: minimum inhibitory concentration (MIC)): 2 µg/mL (≈ 7.63 µM)
MIC ([4]; C. difficile CD-23, read-out: minimum inhibitory concentration (MIC)): 2 µg/mL (≈ 7.63 µM)
MIC ([4]; C. difficile CD-24, read-out: minimum inhibitory concentration (MIC)): 1 µg/mL (≈ 3.81 µM)
MIC ([4]; C. difficile CD-26 (Ribotype-027), read-out: minimum inhibitory concentration (MIC)): 2 µg/mL (≈ 7.63 µM)
MIC ([4]; C. difficile CD-28, read-out: minimum inhibitory concentration (MIC)): 2 µg/mL (≈ 7.63 µM)
MIC ([4]; C. difficile CD-29 (Ribotype-027), read-out: minimum inhibitory concentration (MIC)): 0.5 µg/mL (≈ 1.91 µM)
MIC ([4]; C. difficile CD-30, read-out: minimum inhibitory concentration (MIC)): 2 µg/mL (≈ 7.63 µM)
MIC ([4]; C. difficile NR-49302, read-out: minimum inhibitory concentration (MIC)): 2 µg/mL (≈ 7.63 µM)
MIC ([4]; C. difficile NR-49304, read-out: minimum inhibitory concentration (MIC)): 1 µg/mL (≈ 3.81 µM)
MIC ([4]; C. difficile NR-49308, read-out: minimum inhibitory concentration (MIC)): 1 µg/mL (≈ 3.81 µM)
MIC ([4]; C. difficile NR-49319, read-out: minimum inhibitory concentration (MIC)): 0.5 µg/mL (≈ 1.91 µM)
MIC50 ([4]; read-out: MIC50): 1 µg/mL (≈ 3.81 µM)
MIC90 ([4]; concentration that inhibited 90% of the 20 C. difficile clinical isolates, read-out: MIC90): 2 µg/mL (≈ 7.63 µM)
MIC (L. brevis): 32 µg/mL (≈ 122 µM)
MIC (E. faecium): 128 µg/mL (≈ 488 µM)
MIC (E. fecalis): 128 µg/mL (≈ 488 µM)

COc1cc2c(cc1O)CCN[C@]21CS[C@@H]2c3c(OC(C)=O)c(C)c4c(c3[C@H](COC1=O)N1[C@@H]2[C@H]2c3c(cc(C)c(OC)c3O)C[C@@H]([C@@H]1C#N)N2C)OCO4 [ET-770, ecteinascidin 770]
MIC (Bif. angulatum): ≤ 2 µg/mL
MIC (L. casei): ≤ 2 µg/mL
MIC (B. fragilis; [8]): ≤ 2 µg/mL
MIC (B. fragilis; [9]): ≤ 2 µg/mL
IC50 [5]: 130 nM
MIC (L. rhamanosus): ≤ 2 µg/mL
MIC (enterococcal species): ≤ 2 µg/mL
MIC [6]: 2.02 µM (≈ 1.56 µg/mL)
MIC (Bif. breve): ≤ 2 µg/mL
MIC (Escherichia coli): 32.43 µM (≈ 25 µg/mL)
MIC (Bacillus subtilis): 1.01 µM (≈ 0.779 µg/mL)
IC50 at 24 h (in vitro): > 128 µg/mL
MIC (B. dorei): ≤ 2 µg/mL
time to eliminate / clear C. difficile [7]: 6 h
safety index: Vero IC50 as times the MIC90 against strains of C. difficile [2]: more than 1024 times
MIC (Bif. longum; [10]): ≤ 2 µg/mL
MIC (Bif. longum; [11]): ≤ 2 µg/mL
MIC (Bif. longum; [12]): ≤ 2 µg/mL
MIC (Bif. longum; [13]): ≤ 2 µg/mL
MIC [3]: ≤ 0.19 µg/mL
MIC (Bif. adolescentis): ≤ 2 µg/mL
MIC90 [4]: 0.125 µg/mL (≈ 0.162 µM)
MIC50 ([4]; 48 h): ≤ 0.06 µg/mL
MIC ([4]; ATCC630, read-out: minimum inhibitory concentration (MIC), C. difficile ATCC 630): 0.03 µg/mL (≈ 0.0389 µM)
MIC ([4]; ATCC43255, read-out: minimum inhibitory concentration (MIC), C. difficile ATCC 43255): 0.06 µg/mL (≈ 0.0778 µM)
MIC ([4]; ATCCBAA1870, read-out: minimum inhibitory concentration (MIC), C. difficile ATCC BAA-1870 (Ribotype-027), purchased compounds, panel test): 0.125 µg/mL (≈ 0.162 µM)
MIC ([4]; read-out: minimum inhibitory concentration (MIC), C. difficile CD-1 (Ribotype-027)): 0.125 µg/mL (≈ 0.162 µM)
MIC ([4]; read-out: minimum inhibitory concentration (MIC), C. difficile CD-6 (Ribotype-027)): 0.125 µg/mL (≈ 0.162 µM)
MIC ([4]; read-out: minimum inhibitory concentration (MIC), C. difficile CD-10(Ribotype-027)): 0.125 µg/mL (≈ 0.162 µM)
MIC ([4]; read-out: minimum inhibitory concentration (MIC), C. difficile CD-12): 0.125 µg/mL (≈ 0.162 µM)
MIC ([4]; read-out: minimum inhibitory concentration (MIC), C. difficile CD-13): 0.06 µg/mL (≈ 0.0778 µM)
MIC ([4]; read-out: minimum inhibitory concentration (MIC), C. difficile CD-15): 0.06 µg/mL (≈ 0.0778 µM)
MIC ([4]; read-out: minimum inhibitory concentration (MIC), C. difficile CD-22): 0.125 µg/mL (≈ 0.162 µM)
MIC ([4]; read-out: minimum inhibitory concentration (MIC), C. difficile CD-23): 0.06 µg/mL (≈ 0.0778 µM)
MIC ([4]; read-out: minimum inhibitory concentration (MIC), C. difficile CD-24): 0.125 µg/mL (≈ 0.162 µM)
MIC ([4]; read-out: minimum inhibitory concentration (MIC), C. difficile CD-26 (Ribotype-027)): 0.125 µg/mL (≈ 0.162 µM)
MIC ([4]; read-out: minimum inhibitory concentration (MIC), C. difficile CD-28): 0.03 µg/mL (≈ 0.0389 µM)
MIC ([4]; read-out: minimum inhibitory concentration (MIC), C. difficile CD-29 (Ribotype-027)): 0.06 µg/mL (≈ 0.0778 µM)
MIC ([4]; read-out: minimum inhibitory concentration (MIC), C. difficile CD-30): 0.125 µg/mL (≈ 0.162 µM)
MIC ([4]; read-out: minimum inhibitory concentration (MIC), C. difficile NR-49302): 0.06 µg/mL (≈ 0.0778 µM)
MIC ([4]; read-out: minimum inhibitory concentration (MIC), C. difficile NR-49304): 0.06 µg/mL (≈ 0.0778 µM)
MIC ([4]; read-out: minimum inhibitory concentration (MIC), C. difficile NR-49308): 0.125 µg/mL (≈ 0.162 µM)
MIC ([4]; read-out: minimum inhibitory concentration (MIC), C. difficile NR-49319): 0.06 µg/mL (≈ 0.0778 µM)
MIC50 [4]: 0.06 µg/mL (≈ 0.0778 µM)
MIC (L. brevis): ≤ 2 µg/mL
MIC (E. faecium): ≤ 2 µg/mL
MIC (E. fecalis): ≤ 2 µg/mL
